Assay results from ChEMBL document CHEMBL1201862, “PubChem BioAssay data set” (2004).
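Protocol summary: plate cells (96-well), add compound at 5 concentrations, incubate 48 h, interpolate endpoints linearly. GI50 is the concentration that inhibits growth by half.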 Calls of active or inactive are those of the source. No stated cut-off is given here; in the data, active = GI50 up to about 1.1 µM and inactive = higher.

Key:
Experiment in all cases: NCI-60 cell line screen, 48 h
[1] = test system: Hs-578T
[2] = test system: NCI-H23
[3] = test system: EKVX
[4] = test system: OVCAR-5
[5] = test system: NCI-H226
[6] = test system: UACC-257
[7] = test system: SK-MEL-2
[8] = test system: T47D
[9] = test system: SW-620
[10] = test system: OVCAR-8
[11] = test system: MOLT-4
[12] = test system: U-251
[13] = test system: TK-10
[14] = test system: NCI/ADR-RES
[15] = test system: RPMI-8226
[16] = test system: PC-3
[17] = test system: UO-31
[18] = test system: 786-0
[19] = test system: CAKI-1
[20] = test system: OVCAR-4
[21] = test system: SK-OV-3
[22] = test system: COLO 205
[23] = test system: BT-549
[24] = test system: KM12
[25] = test system: CCRF-CEM
[26] = test system: RXF 393
[27] = test system: Malme-3M
[28] = test system: HL-60
[29] = test system: HCT-15
[30] = test system: MDA-MB-231
[31] = test system: K562
[32] = test system: A549
[33] = test system: SNB-19
[34] = test system: SR
[35] = test system: MDA-N
[36] = test system: NCI-H460
[37] = test system: UACC-62
[38] = test system: A498
[39] = test system: ACHN
[40] = test system: HT-29
[41] = test system: OVCAR-3
[42] = test system: MDA-MB-435
[43] = test system: SF-539
[44] = test system: MCF7
[45] = test system: M14
[46] = test system: LOX IMVI
[47] = test system: HCT-116
[48] = test system: HOP-92
[49] = test system: IGROV-1
[50] = test system: SNB-75
[51] = test system: HOP-62
[52] = test system: NCI-H522
[53] = test system: SF-295
[54] = test system: SK-MEL-5
[55] = test system: SF-268
[56] = test system: HCC 2998
[57] = test system: SN12C
[58] = test system: SK-MEL-28
[59] = test system: DU-145

Cc1ccc(S(=O)(=O)NC(CCC(=O)NN)C(=O)NN)cc1 (configuration not stated)
GI50 [1]: > 100 µM (inactive)
GI50 [2]: > 100 µM (inactive)
GI50 [3]: > 100 µM (inactive)
GI50 [4]: > 100 µM (inactive)
GI50 [5]: > 100 µM (inactive)
GI50 [6]: > 100 µM (inactive)
GI50 [7]: > 100 µM (inactive)
GI50 [8]: > 100 µM (inactive)
GI50 [9]: > 100 µM (inactive)
GI50 [10]: > 100 µM (inactive)
GI50 [11]: > 100 µM (inactive)
GI50 [12]: > 100 µM (inactive)
GI50 [13]: > 100 µM (inactive)
GI50 [14]: > 100 µM (inactive)
GI50 [15]: > 100 µM (inactive)
GI50 [16]: > 100 µM (inactive)
GI50 [17]: > 100 µM (inactive)
GI50 [18]: > 100 µM (inactive)
GI50 [19]: > 100 µM (inactive)
GI50 [20]: 16.5 µM (inactive)
GI50 [21]: > 100 µM (inactive)
GI50 [22]: > 100 µM (inactive)
GI50 [23]: > 100 µM (inactive)
GI50 [24]: > 100 µM (inactive)
GI50 [25]: > 100 µM (inactive)
GI50 [26]: > 100 µM (inactive)
GI50 [27]: > 100 µM (inactive)
GI50 [28]: > 100 µM (inactive)
GI50 [29]: 0.304 µM
GI50 [30]: > 100 µM (inactive)
GI50 [31]: > 100 µM (inactive)
GI50 [32]: > 100 µM (inactive)
GI50 [33]: > 100 µM (inactive)
GI50 [34]: > 100 µM (inactive)
GI50 [35]: > 100 µM (inactive)
GI50 [36]: 0.067 µM (active)
GI50 [37]: > 100 µM (inactive)
GI50 [38]: > 100 µM (inactive)
GI50 [39]: > 100 µM (inactive)
GI50 [40]: > 100 µM (inactive)
GI50 [41]: > 100 µM (inactive)
GI50 [42]: > 100 µM (inactive)
GI50 [43]: > 100 µM (inactive)
GI50 [44]: > 100 µM (inactive)
GI50 [45]: > 100 µM (inactive)
GI50 [46]: > 100 µM (inactive)
GI50 [47]: > 100 µM (inactive)
GI50 [48]: > 100 µM (inactive)
GI50 [49]: > 100 µM (inactive)
GI50 [50]: > 100 µM (inactive)
GI50 [51]: > 100 µM (inactive)
GI50 [52]: > 100 µM (inactive)
GI50 [53]: > 100 µM (inactive)
GI50 [54]: > 100 µM (inactive)
GI50 [55]: > 100 µM (inactive)

C(/C=N/N=C1NCCCCN1)=N\N=C1NCCCCN1
GI50 [1]: > 100 µM (inactive)
GI50 [2]: > 100 µM (inactive)
GI50 [3]: > 100 µM (inactive)
GI50 [4]: > 100 µM (inactive)
GI50 [5]: > 100 µM (inactive)
GI50 [6]: > 100 µM (inactive)
GI50 [8]: > 100 µM (inactive)
GI50 [9]: > 100 µM (inactive)
GI50 [10]: > 100 µM (inactive)
GI50 [11]: > 100 µM (inactive)
GI50 [12]: > 100 µM (inactive)
GI50 [13]: > 100 µM (inactive)
GI50 [14]: > 100 µM (inactive)
GI50 [16]: > 100 µM (inactive)
GI50 [17]: > 100 µM (inactive)
GI50 [18]: > 100 µM (inactive)
GI50 [56]: > 100 µM (inactive)
GI50 [19]: > 100 µM (inactive)
GI50 [20]: > 100 µM (inactive)
GI50 [21]: > 100 µM (inactive)
GI50 [22]: > 100 µM (inactive)
GI50 [23]: > 100 µM (inactive)
GI50 [24]: > 100 µM (inactive)
GI50 [25]: > 100 µM (inactive)
GI50 [27]: > 100 µM (inactive)
GI50 [57]: > 100 µM (inactive)
GI50 [58]: > 100 µM (inactive)
GI50 [30]: > 100 µM (inactive)
GI50 [31]: > 100 µM (inactive)
GI50 [32]: > 100 µM (inactive)
GI50 [33]: > 100 µM (inactive)
GI50 [34]: > 100 µM (inactive)
GI50 [35]: > 100 µM (inactive)
GI50 [36]: > 100 µM (inactive)
GI50 [37]: > 100 µM (inactive)
GI50 [39]: > 100 µM (inactive)
GI50 [40]: > 100 µM (inactive)
GI50 [41]: > 100 µM (inactive)
GI50 [42]: > 100 µM (inactive)
GI50 [43]: > 100 µM (inactive)
GI50 [44]: > 100 µM (inactive)
GI50 [45]: > 100 µM (inactive)
GI50 [46]: > 100 µM (inactive)
GI50 [47]: > 100 µM (inactive)
GI50 [48]: > 100 µM (inactive)
GI50 [49]: > 100 µM (inactive)
GI50 [50]: > 100 µM (inactive)
GI50 [51]: > 100 µM (inactive)
GI50 [52]: > 100 µM (inactive)
GI50 [53]: > 100 µM (inactive)
GI50 [54]: > 100 µM (inactive)
GI50 [55]: > 100 µM (inactive)

c1cc(C[S+]2CCCC2)oc1C[S+]1CCCC1
GI50 [1]: > 100 µM (inactive)
GI50 [2]: > 100 µM (inactive)
GI50 [3]: > 100 µM (inactive)
GI50 [6]: > 100 µM (inactive)
GI50 [8]: > 100 µM (inactive)
GI50 [9]: > 100 µM (inactive)
GI50 [10]: > 100 µM (inactive)
GI50 [11]: > 100 µM (inactive)
GI50 [12]: > 100 µM (inactive)
GI50 [13]: > 100 µM (inactive)
GI50 [14]: > 100 µM (inactive)
GI50 [16]: > 100 µM (inactive)
GI50 [17]: > 100 µM (inactive)
GI50 [18]: > 100 µM (inactive)
GI50 [56]: > 100 µM (inactive)
GI50 [19]: > 100 µM (inactive)
GI50 [20]: > 100 µM (inactive)
GI50 [21]: > 100 µM (inactive)
GI50 [22]: > 100 µM (inactive)
GI50 [23]: > 100 µM (inactive)
GI50 [25]: > 100 µM (inactive)
GI50 [26]: > 100 µM (inactive)
GI50 [27]: > 100 µM (inactive)
GI50 [57]: > 100 µM (inactive)
GI50 [58]: > 100 µM (inactive)
GI50 [29]: > 100 µM
GI50 [30]: > 100 µM (inactive)
GI50 [31]: > 100 µM (inactive)
GI50 [32]: > 100 µM (inactive)
GI50 [33]: > 100 µM (inactive)
GI50 [35]: > 100 µM (inactive)
GI50 [36]: > 100 µM (inactive)
GI50 [37]: > 100 µM (inactive)
GI50 [38]: 53.6 µM (inactive)
GI50 [39]: > 100 µM (inactive)
GI50 [40]: > 100 µM (inactive)
GI50 [59]: > 100 µM (inactive)
GI50 [41]: > 100 µM (inactive)
GI50 [42]: > 100 µM (inactive)
GI50 [43]: > 100 µM (inactive)
GI50 [45]: > 100 µM (inactive)
GI50 [46]: > 100 µM (inactive)
GI50 [47]: > 100 µM (inactive)
GI50 [49]: > 100 µM (inactive)
GI50 [50]: > 100 µM (inactive)
GI50 [51]: > 100 µM (inactive)
GI50 [52]: > 100 µM (inactive)
GI50 [53]: > 100 µM (inactive)
GI50 [54]: > 100 µM (inactive)
GI50 [55]: > 100 µM (inactive)
